Reference: patent publication US20150268248A1, “CELL SELECTIVE PROTEOME LABELING” (MEMORIAL SLOAN-KETTERING CANCER CENTER, priority 2012, published 2015)
“Also recorded” adds a separate entry of the source.

Assays:
[1] = tested on: lyr-expressing MDA-MB-231 cells; assay: Growth rescue on precursors in L-Lysine-free medium (xCELLigence impedance); assay type: cell-based, human; conditions: 4 mM D-Lysine or 10 mM DAP, mono-culture
Method: (§1) Cell growth, assessed with impedance (a correlate of the number of cells) using the xCELLigence system, was normalized to maximum growth. Error bars represent the standard deviation of three biological replicates.
(§2) Cell lines were grown in Dulbecco's modified Eagle's medium (DMEM) without L-Lysine and L-Arginine (SILAC-DMEM, Thermo Fisher Scientific) supplemented with 10% dialyzed FBS, antibiotics, and L-glutamine. […] Cell viability was measured using either the metabolic-activity based Resazurin (Sigma) reagent or the impedance-based xCELLigence system (Roche). For Resazurin experiments, 25 μL of the Resazurin reagent was added to each well and cellular growth was estimated after two to three hours of incubation at 37° C. as described by the manufacturer. For xCELLigence experiments, cells were plated in either 16 or 96-well E-plates, allowed to settle for 30 minutes at room temperature, and then placed in the RTCA DP or RTCA MP analyzer where impedance was measured every 15 minutes for 96-120 hours. At least three replicates were performed for each condition.

[2] = tested on: HEK 293T cells; assay: Growth of wild-type cells on L-Lysine precursors (Resazurin/AlamarBlue); assay type: cell-based, human; conditions: wild-type HEK 293T; medium without L-Lysine supplemented with high (mM-range) concentrations of precursor
Method: (§3) (a) Cells were seeded in 96 well format using at least 4 replicates per condition and cell proliferation was measured with the Resazurin (AlamarBlue) assay at the time indicated.
(§4) To investigate the candidate precursors and eliminate those that autonomously rescue L-Lysine auxotrophy, growth rates in SILAC media supplemented with L-Lysine, various precursors, or in L-Lysine-free conditions were examined.
as §2

[3] = tested on: DDC-expressing 3T3 cells; assay: Growth rescue on precursors in L-Lysine-free medium (xCELLigence impedance); assay type: cell-based, mouse; conditions: 10 mM DAP or 4 mM D-Lysine, mono-culture
Method: as §1, §2

[4] = tested on: HEK293T cells expressing a truncated Lysine racemase (lyr); assay: Growth on D-lysine of cells expressing truncated lyr (xCELLigence impedance); assay type: cell-based, human; conditions: mono- and co-culture in vitro
Method: as §1
(§5) Cell lines were grown in Dulbecco's modified Eagle's medium (DMEM) without L-Lysine and L-Arginine (SILAC-DMEM, Thermo Fisher Scientific) supplemented with 10% dialyzed FBS, antibiotics, and L-glutamine. For mono-culture growth assays, 1 mM L-Arginine was added to the media and cells were seeded in 200 μL in 96-well plates with 4000 or 5000 cells per well in different concentrations of L-Lysine, meso-2,6-diaminopimelate (DAP, Sigma, 33240), D-Lysine HCL (Sigma, L5876), N-α-Cbz-L-Lysine (Z-Lysine, BaChem, C-2200), or N2-acetyl-L-Lysine (N2A, Sigma, A2010). Cell viability was measured using either the metabolic-activity based Resazurin (Sigma) reagent or the impedance-based xCELLigence system (Roche). For Resazurin experiments, 25 μL of the Resazurin reagent was added to each well and cellular growth was estimated after two to three hours of incubation at 37° C. as described by the manufacturer. For xCELLigence experiments, cells were plated in either 16 or 96-well E-plates, allowed to settle for 30 minutes at room temperature, and then placed in the RTCA DP or RTCA MP analyzer where impedance was measured every 15 minutes for 96-120 hours. […]

[5] = tested on: 3T3 cells; assay: Growth of wild-type cells on L-Lysine precursors (Resazurin/AlamarBlue); assay type: cell-based, mouse; conditions: wild-type 3T3; medium without L-Lysine supplemented with high (mM-range) concentrations of precursor
Method: as §3, §4, §2

[6] = tested on: MDA-MB-231 cells expressing truncated Lysine racemase (lyr); assay: Growth on D-lysine of cells expressing truncated lyr; assay type: cell-based, human; conditions: mono- and co-culture in vitro
Method: Cell lines were grown in Dulbecco's modified Eagle's medium (DMEM) without L-Lysine and L-Arginine (SILAC-DMEM, Thermo Fisher Scientific) supplemented with 10% dialyzed FBS, antibiotics, and L-glutamine. For mono-culture growth assays, 1 mM L-Arginine was added to the media and cells were seeded in 200 μL in 96-well plates with 4000 or 5000 cells per well in different concentrations of L-Lysine, meso-2,6-diaminopimelate (DAP, Sigma, 33240), D-Lysine HCL (Sigma, L5876), N-α-Cbz-L-Lysine (Z-Lysine, BaChem, C-2200), or N2-acetyl-L-Lysine (N2A, Sigma, A2010). Cell viability was measured using either the metabolic-activity based Resazurin (Sigma) reagent or the impedance-based xCELLigence system (Roche). For Resazurin experiments, 25 μL of the Resazurin reagent was added to each well and cellular growth was estimated after two to three hours of incubation at 37° C. as described by the manufacturer. For xCELLigence experiments, cells were plated in either 16 or 96-well E-plates, allowed to settle for 30 minutes at room temperature, and then placed in the RTCA DP or RTCA MP analyzer where impedance was measured every 15 minutes for 96-120 hours. At least three replicates were performed for each condition.

[7] = tested on: B16 cells expressing truncated Lysine racemase (lyr); assay: as above; assay type: cell-based, mouse; conditions: mono- and co-culture in vitro
Method: CTAP can be quickly adaptable across many cell types without phenotypic or molecular disturbance. Cell lines that are suitable for use in practicing the method of the invention include, but are not limited to mouse fibroblast 3T3 cells, mouse melanoma, B16 cells, human embryonic kidney (HEK) cells, human mammary adenocarcinoma cells, […], etc.
as §5, with “For Resazurin experiments, 25 μL of the Resazurin reagent was added to each well and cellular growth was estimated after two to three hours of incubation at 37° C. as described by the manufacturer.” left out

[8] = tested on: DDC-expressing HEK293T cells; assay: Growth rescue on precursors in L-Lysine-free medium (xCELLigence impedance); assay type: cell-based, human; conditions: 10 mM DAP, mono-culture
Method: FIG. 9 are graphs showing that HEK293T cells expressing the L-Lysine biosynthesis enzyme diaminopimelate decarboxylase (DDC) specifically grow on meso-2,6-diaminopimelate (DAP). HEK293T cells stably transfected with DDC (left panel) or empty control vector (right panel) were cultured in 0.798 mM L-Lysine, 10 mM DAP, or neither (blank). Cell growth was estimated by the impedance-based xCelligence assay and data was normalized to the maximum value for each cell-type. Note that only HEK293T cells that express DDC grow on DAP. Error bars represent the standard deviation of three biological replicates.
The time to reach normal growth rates varied between cell-types from immediate to a short passaging/selection period.
as §2, with “For Resazurin experiments, 25 μL of the Resazurin reagent was added to each well and cellular growth was estimated after two to three hours of incubation at 37° C. as described by the manufacturer.” left out, “At least three replicates were performed for each condition.” left out

[9] = tested on: CBZcleaver-expressing 3T3 cells; assay: Growth on Z-Lysine (xCELLigence impedance); assay type: cell-based, mouse; conditions: 2.5 mM Z-Lysine, L-Lysine-free
Method: FIG. 10 are graphs showing that 3T3 cells expressing the CBZcleaver enzyme grow on Z-Lysine and partially incorporate L-Lysine produced from Z-Lysine (CBZ-Lysine). (a) 3T3 cells stably trasfected with CBZcleaver (left panel) or empty control vector (right panel) were cultured in 0.798 mM L-Lysine, 2.5 mM Z-Lysine, or without either (blank). Cell growth was estimated by the impedance-based xCELLigence assay and data was normalized to maximum values for each cell-type. Error bars represent the standard deviation of three biological replicates. […] The labeling status was assessed by quantitative LC-MS/MS at the beginning of the experiment where the cells were labeled with medium L-Lysine (left, K4) and after 10 days in L-Lysine-free media with heavy labeled Z-Lysine (right, Z8). […]
as §2, with “For Resazurin experiments, 25 μL of the Resazurin reagent was added to each well and cellular growth was estimated after two to three hours of incubation at 37° C. as described by the manufacturer.” left out, “At least three replicates were performed for each condition.” left out

| Structure (SMILES) | growth rate relative to media containing L-Lysine [1] | growth response [2] | growth rate relative to media containing L-Lysine [3] | growth on D-lysine relative to growth on L-lysine [4] | growth response [5] | growth on D-lysine relative to growth on L-lysine [6] | growth on D-lysine relative to growth on L-lysine [7] | growth rate relative to media containing L-Lysine [8] | growth on Z-Lysine [9] |
| --- | --- | --- | --- | --- | --- | --- | --- | --- | --- |
| NCCCC[C@@H](N)C(=O)O [D-Lysine] | comparable | no or limited growth response | no growth | comparable | no or limited growth response | comparable | comparable | – | – |
| N[C@H](CCC[C@H](N)C(=O)O)C(=O)O [DAP, meso-2,6-diaminopimelate] | no growth | no or limited growth response | comparable | – | no or limited growth response | – | – | comparable | – |
| CC(=O)N[C@@H](CCCCN)C(=O)O [N2A, N2-acetyl-L-Lysine] | – | substantial growth response | – | – | substantial growth response | – | – | – | – |
| NCCCC[C@H](NC(=O)OCc1ccccc1)C(=O)O [Z-Lysine, N-α-Cbz-L-Lysine] | – | no or limited growth response | – | – | no or limited growth response | – | – | – | incomplete; also recorded: specific growth rescue |
